Like-named read-outs stand apart in the source and are kept apart here.
Legend:
[1] = test system: tactile allodynia; experiment: CCI/Tactile Allodynia (von Frey hairs); format: in vivo; conditions: CCI rats; for dose that reversed tactile allodynia: i.p., post-hoc comparison
Experimental: (§1) Rats were anesthetized under aseptic and heated conditions using a combination of 1.6 ml ketamine (100 mg/ml) and 1.6 ml xylazine (100 mg/ml) in 6.8 ml 0.9% saline at a volume of 0.1 ml/100 g. The left quadriceps was shaved and scrubbed thoroughly with an iodine solution. The sciatic nerve was exposed at the level of the sciatic notch distally to the sciatic trifurcation. The nerve was very carefully freed from the underlying muscle and connective tissue without causing trauma to the nerve itself. Using 4-0 chromic catgut suture material, four semi-loose ligatures were tied around the sciatic nerve starting at the most proximal level, next to the sciatic notch, spaced roughly 1 mm apart and ending proximal to the sciatic trifurcation. […] The muscular incision was closed with 4-0 silk suture material and the skin was stapled with wound clips. The animals were closely observed until they recovered completely from the anesthetic. The surgery was the same for the hyperalgesia and allodynia experiments.
The onset and duration of significant mechanical allodynia post CCI surgery is approximately 10-14 days and lasts for roughly two months. Within this allodynic time frame, and for each specific allodynia experiment, pre and post drug administration measurements were taken with seven von Frey hairs which are designated by log (10* force required to bend hair, mg) and ranged from 2-26 grams (#'s 4.31-5.46). Each hair was pressed perpendicularly against the left injured plantar mid-hind paw surface with sufficient force to cause a slight bending, and was held for 6-8 seconds starting with the thinnest gauged hair and working up to the thickest. A positive response was recorded when the injured paw was sharply withdrawn, and this response was confirmed as positive by testing the next thickest gauged hair for the same response. Only when a response was seen twice was the score accepted. If the maximum gram force of 26 was reached without a response, this was considered the peak threshold cutoff for allodynic behavior and the score was recorded. Animals were considered allodynic when the post surgery baseline measurements were 6 grams and below. Two baseline days of measurements were taken with one round of testing occurring per day. On the day of drug testing, one round of baseline measurements were taken, the appropriate pretreatment was administered i.p. and a second round of measurements were recorded. Each animal was utilized in multiple experiments, with one treatment per experiment, and an appropriate washout period in between experiments.

[2] = test system: thermal hyperalgesia; experiment: CCI/Thermal Hyperalgesia (paw withdrawal latency to radiant heat); format: in vivo; conditions: CCI rats; for dose that significantly reversed thermal hyperalgesia: post-hoc comparison relative to vehicle
Experimental: as §1
For hyperalgesia testing, rats were placed in a tinted plastic box on top of a clear glass, temperature-regulated floor maintained at 31±1° C. The floor contained a focal radiant heat source (halogen projection lamp CXL/CXP, 50 W, 8 v, USHIO, Tokyo).
To initiate the test, rats were placed in the tinted boxes and allowed 10-20 minutes to acclimate to the new environment. The radiant heat source was then positioned under the plantar surface of the hind paw. Upon activation of the heat source, a timer was simultaneously triggered. Upon reflex movement of the hind paw, a motion sensor was activated stopping the timer and inactivating the heat source. The thermal source was adjusted so that the average response latency for an uninjured animal was no greater than 20 seconds. Each rat had two days of pre-operative baseline latency measurements in which the left rear hind paw plantar surface was measured three to four times. Two to three left postoperative baseline latency measurements were taken before and after the treatment was given. Postoperative day 2 and 4 measurements yielded the greatest degree of hyperalgesia and thus were utilized in this assay. Each animal was tested twice with at least 48 hours separating each test.
Thermal hyperalgesia developed in the surgical-treated left paw as evidenced by a decrease in paw withdrawal latencies to a thermal stimulus. The maximal hyperalgesia occurred on post-operative days 2 through 4. Paw withdrawal latencies on the surgically-treated left side gradually returned to baseline levels over the course of 5 to 12 days post-surgery.

[3] = molecular target: T1, M(2) muscarinic receptor (Homo sapiens, UniProt P08172); experiment: R-SAT functional receptor assay, M(2); format: cell-based; conditions: for Emax: read-out: M2 % efficacy
T1 construct: expressed in transfected cells
T1 sequence (P08172 1-466): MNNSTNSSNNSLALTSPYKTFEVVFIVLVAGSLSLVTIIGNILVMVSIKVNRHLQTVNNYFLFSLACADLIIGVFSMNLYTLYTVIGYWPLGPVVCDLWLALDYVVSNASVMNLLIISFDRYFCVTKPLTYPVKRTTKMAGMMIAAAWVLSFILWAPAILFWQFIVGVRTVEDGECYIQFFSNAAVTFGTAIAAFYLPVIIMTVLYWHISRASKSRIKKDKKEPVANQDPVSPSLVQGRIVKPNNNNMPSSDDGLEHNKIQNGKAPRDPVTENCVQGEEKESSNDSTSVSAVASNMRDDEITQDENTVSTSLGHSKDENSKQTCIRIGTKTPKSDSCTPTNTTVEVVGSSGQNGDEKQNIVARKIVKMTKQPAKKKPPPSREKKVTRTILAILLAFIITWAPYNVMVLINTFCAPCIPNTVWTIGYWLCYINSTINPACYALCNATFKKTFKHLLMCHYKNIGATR
Excerpt: (§2) The functional receptor assay, Receptor Selection and Amplification Technology (R-SAT), essentially as disclosed in U.S. Pat. Nos. 5,707,798, 5,912,132, and 5,955,281, which are all hereby incorporated by reference in their entirety, was used to investigate the pharmacological properties of known and novel muscarinic agonists.

[4] = test system: acute thermal pain; experiment: Acute Thermal Analgesia (tail withdrawal from 55° C. water); format: in vivo; conditions: rats; for dose active in acute antinociception (tail withdrawal) / alleviating acute thermal pain, in words: 55° C. water; for Acute pain, minimal effective dose: NA = not active at the highest tested dose of 30 mg/kg
Experimental: Water was heated and maintained at 55° C.±1° C. with a probe regulated hot plate. Female rats weighing approximately 200 g -250 g were acclimated days in advance by placing them into and removing them from a plastic rat restrainer. On the day of the experiment each rat was placed in the restrainer 1 minute before the test was performed. Roughly one inch of the tail was submerged into the water as a timer was initiated. Once the tail was completely removed from the water, the timer was stopped and the time was recorded. […] One round of baseline measurements were collected. The test compound was administered and after the appropriate pretreatment interval, the procedure was repeated. Each animal was utilized in multiple experiments, with one treatment per experiment, and an appropriate washout period of at least 48 hours between experiments. The pre-treatment baseline tail withdrawal latency average was 2.281 s±0.25. […] At a dose of 10 mg/kg, morphine [F(3,23)=5.903, p<0.01] was antinociceptive.

[5] = molecular target: T2, M(1) muscarinic receptor (Homo sapiens, UniProt P11229); experiment: R-SAT functional receptor assay, M(1); format: cell-based; conditions: for Emax: read-out: M1 % efficacy
T2 construct: expressed in transfected cells
T2 sequence (P11229 1-460): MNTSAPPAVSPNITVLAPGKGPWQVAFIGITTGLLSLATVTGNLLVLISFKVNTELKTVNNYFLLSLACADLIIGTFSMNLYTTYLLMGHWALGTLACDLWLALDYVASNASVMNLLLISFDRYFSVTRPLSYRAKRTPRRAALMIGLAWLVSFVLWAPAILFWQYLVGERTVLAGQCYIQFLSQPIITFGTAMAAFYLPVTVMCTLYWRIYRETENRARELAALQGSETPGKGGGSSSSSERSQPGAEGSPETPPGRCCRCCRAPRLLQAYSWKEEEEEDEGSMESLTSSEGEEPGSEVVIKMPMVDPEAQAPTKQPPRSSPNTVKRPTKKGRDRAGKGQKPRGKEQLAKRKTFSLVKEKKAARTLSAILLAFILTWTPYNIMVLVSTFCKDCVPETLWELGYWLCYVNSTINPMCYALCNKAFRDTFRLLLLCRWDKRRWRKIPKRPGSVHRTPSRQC
Excerpt: as §2

[6] = test system: rats; experiment: Muscarinic Side Effects; conditions: of N tested
[7] = test system: tactile allodynia; experiment: Partial Sciatic Ligation (PSL) Surgery/Tactile Allodynia; format: in vivo, mice
[8] = R-SAT, read-out: M2 pEC50 (converted)
[9] = R-SAT, read-out: M1 pEC50 (converted)

CCCCCCOc1nsnc1C1=CCCN(C)C1 [Xanomeline] was tested, and the “Antiallodynic, minimal effective dose” value [1] was 10.0 mg/kg, the “Antihyperalgesic, minimal effective dose” value [2] was 10.0 mg/kg and the “dose that did not reverse thermal hyperalgesia” value ([2]; p>0.05 relative to vehicle) was 3 mg/kg. The “dose that significantly reversed thermal hyperalgesia” value [2] was 10 mg/kg, the “agonist character at M(2) receptor, in words” value ([3]; R-SAT) was “potent and efficacious full agonists” and the Emax ([3]; R-SAT, relative to carbachol) was 109%. The “dose active in acute antinociception (tail withdrawal)” value (shortened to “dose active in acute antinociception”) [4] was 10.0 mg/kg and the “Acute pain, minimal effective dose” value [4] was 10.0 mg/kg.
In the case of CCCCC1CCN(CCCN2CCOc3ccc(C)cc32)CC1 [Formula (VIII)], the “Antiallodynic, minimal effective dose” value [1] is reported as 30.0 mg/kg, the “dose that reversed tactile allodynia” value [1] is reported as 30 mg/kg and the “Antihyperalgesic, minimal effective dose” value [2] is reported as 10.0 mg/kg. For the same compound, the “dose that significantly reversed thermal hyperalgesia” value [2] was 10 mg/kg, the “agonist character at M(2) receptor, in words” value ([3]; R-SAT) was “weak partial agonists” and the EC50 [3, 8] was 501 nM. The Emax [3] was 39%, the “agonist character at M(1) receptor, in words” value ([5]; R-SAT) was “potent and efficacious M(1) agonist” and the EC50 [5, 9] was 20 nM. The Emax [5] was 81% and the “alleviating acute thermal pain, in words” value [4] was “not active”.
With CN1CC[C@]23c4c5ccc(O)c4O[C@H]2[C@@H](O)C=C[C@H]3[C@H]1C5 [Morphine, morphine] the “anti-allodynia, in words” value [1] was “elicited anti-allodynia” and the “dose active in acute antinociception” value [4] was 10 mg/kg.
For O=C1CCCN1CC#CCN1CCCC1 [Oxotremorine], the “Antiallodynic, minimal effective dose” value [1] was 0.3 mg/kg, the “Chromodaccyhrea, number of animals exhibiting” value (from here on “Chromodaccyhrea, number”) ([6]; 0.1 mg/kg) was 0 and the “Diarrhea, number of animals exhibiting” value ([6]; 0.1 mg/kg) was 1. For the same compound, the “Lethargy, number of animals exhibiting” value ([6]; 0.1 mg/kg) was 0, the “Salivation, number of animals exhibiting” value ([6]; 0.1 mg/kg) was 0 and the “Tremor, number of animals exhibiting” value ([6]; 0.1 mg/kg) was 0. The “Chromodaccyhrea, number” value ([6]; 0.3 mg/kg) was 2, the “Diarrhea, number of animals exhibiting” value ([6]; 0.3 mg/kg) was 7 and the “Lethargy, number of animals exhibiting” value ([6]; 0.3 mg/kg) was 0. For the same compound, the “Salivation, number of animals exhibiting” value ([6]; 0.3 mg/kg) was 9, the “Tremor, number of animals exhibiting” value ([6]; 0.3 mg/kg) was 0 and the “Chromodaccyhrea, number” value ([6]; 1 mg/kg) was 8. For the same compound, the “Diarrhea, number of animals exhibiting” value ([6]; 1 mg/kg) was 18, the “Lethargy, number of animals exhibiting” value ([6]; 1 mg/kg) was 18 and the “Salivation, number of animals exhibiting” value ([6]; 1 mg/kg) was 16. The “Tremor, number of animals exhibiting” value ([6]; 1 mg/kg) was 6, the “Antihyperalgesic, minimal effective dose” value [2] was 0.3 mg/kg and the paw withdrawal latency ([2]; dose 1 mg/kg) was 18.468 ± 1.532 s. The EC50 [3] was 15.8 nM, the “agonist character at M(2) receptor, in words” value ([3]; R-SAT) was “potent and efficacious full agonists” and the Emax [3] was 104%. For the same compound, the EC50 [5] was 63.1 nM, the “agonist character at M(1) receptor, in words” value ([5]; R-SAT) was “potent and efficacious full agonists” and the Emax [5] was 91%. For the same compound, the “Acute pain, minimal effective dose” value [4] was 0.3 mg/kg.
In the case of CCCCC1CCN(CCCc2nsc3ccccc23)CC1 [Formula (VII)], the “Antiallodynic, minimal effective dose” value [1] is reported as 10.0 mg/kg, the “dose that reversed tactile allodynia” value [1] is reported as 10 mg/kg and the “Antihyperalgesic, minimal effective dose” value [2] is reported as 10.0 mg/kg. The “dose that significantly reversed thermal hyperalgesia” value [2] was 10 mg/kg, the “agonist character at M(2) receptor, in words” value ([3]; R-SAT) was “weak partial agonists” and the EC50 [3, 8] was 1260 nM. For the same compound, the Emax ([3]; R-SAT, relative to carbachol) was 36%, the “agonist character at M(1) receptor, in words” value ([5]; R-SAT) was “potent and efficacious M(1) agonist” and the EC50 [5, 9] was 79.4 nM. For the same compound, the Emax ([5]; R-SAT, relative to carbachol) was 85% and the “alleviating acute thermal pain, in words” value [4] was “not active”.
In the case of CO/N=C/C1=CCCN(C)C1 [Milameline], the “Antiallodynic, minimal effective dose” value [1] is reported as 0.3 mg/kg, the “Antihyperalgesic, minimal effective dose” value [2] is reported as 0.3 mg/kg and the “agonist character at M(2) receptor, in words” value ([3]; R-SAT) is reported as “potent and efficacious full agonists”. The EC50 [3, 8] was 631 nM, the Emax ([3]; R-SAT, relative to carbachol) was 110% and the “agonist character at M(1) receptor, in words” value ([5]; R-SAT) was “potent and efficacious full agonists”. For the same compound, the EC50 [5, 9] was 398 nM, the Emax ([5]; R-SAT, relative to carbachol) was 90% and the “dose active in acute antinociception” value [4] was 1.0 mg/kg. The “Acute pain, minimal effective dose” value [4] was 1.0 mg/kg.
CCCCC1CCN(CCCN2C(=O)COc3cc(F)ccc32)CC1 [Formula (IX)] was tested, and the “Antiallodynic, minimal effective dose” value [1] was 17.8 mg/kg, the “dose that reversed tactile allodynia” value [1] was 17.8 mg/kg and the “effect on tactile allodynia after PSL, in words” value (“effect on tactile allodynia” below) ([7]; M(1) receptor knockout (KO) mice, 30 mg/kg) was “completely abolished”. For the same compound, the “effect on tactile allodynia” value ([7]; mice, intracerebroventricular (i.c.v.) administration) was “significantly reversed tactile allodynia”, the “effect on tactile allodynia” value ([7]; wild type (WT) mice, 30 mg/kg) was “significantly alleviated the tactile allodynia” and the “Antihyperalgesic, minimal effective dose” value [2] was 10.0 mg/kg. For the same compound, the “dose that significantly reversed thermal hyperalgesia” value [2] was 10 mg/kg, the “agonist character at M(2) receptor, in words” value ([3]; R-SAT) was “weak partial agonists” and the EC50 [3, 8] was 501 nM. For the same compound, the Emax ([3]; R-SAT, relative to carbachol) was 48%, the “agonist character at M(1) receptor, in words” value ([5]; R-SAT) was “potent and efficacious M(1) agonist” and the EC50 [5, 9] was 31.6 nM. For the same compound, the Emax ([5]; R-SAT, relative to carbachol) was 79% and the “alleviating acute thermal pain, in words” value [4] was “not active”.
